According to ChEMBL document CHEMBL1201862, “PubChem BioAssay data set” (2004):
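Results reflect a 48-hour exposure of cells in 96-well plates to compound at five concentrations. Abbreviation: GI50, concentration required for 50% inhibition of growth.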 The source made the active and inactive calls. Rule as the data show it: active = GI50 up to about 1.1 µM and inactive = higher.

Tests used:
Assay in all cases: DTP human tumour cell line panel, 48 h
T47D = tested on: T47D
UACC-62 = tested on: UACC-62
SNB-19 = tested on: SNB-19
MOLT-4 = tested on: MOLT-4
RXF 393 = tested on: RXF 393
NCI-H23 = tested on: NCI-H23
M14 = tested on: M14
KM12 = tested on: KM12
EKVX = tested on: EKVX
SF-539 = tested on: SF-539
SW-620 = tested on: SW-620
OVCAR-5 = tested on: OVCAR-5
PC-3 = tested on: PC-3
SNB-75 = tested on: SNB-75
UACC-257 = tested on: UACC-257
BT-549 = tested on: BT-549
786-0 = tested on: 786-0
MDA-MB-435 = tested on: MDA-MB-435
MCF7 = tested on: MCF7
ACHN = tested on: ACHN

Measured: GI50

COC(=O)C(Cc1c[nH]c2ccccc12)NC1=Nc2ccncc2S(=O)(=O)N1c1cccc(OC(C)C)c1 (stereo not given)
inactive: T47D 36.1 µM | UACC-62 25.9 µM | SNB-19 68.1 µM | MOLT-4 8.91 µM | RXF 393 > 100 µM | NCI-H23 20.1 µM | M14 41.6 µM | KM12 63.2 µM | EKVX 36.6 µM | SF-539 80.5 µM | SW-620 92.5 µM | OVCAR-5 > 100 µM | PC-3 39.9 µM | SNB-75 53.2 µM | UACC-257 > 100 µM | BT-549 27.8 µM | 786-0 34.2 µM | MDA-MB-435 45.9 µM | MCF7 24.7 µM | ACHN 41.1 µM

Brc1ccc(/N=C/C=C(\Nc2ccc(Br)cc2)C23CC4CC(CC(C4)C2)C3)cc1
inactive: T47D 8.07 µM | UACC-62 1.17 µM | SNB-19 29.6 µM | MOLT-4 6.07 µM | RXF 393 14.7 µM | NCI-H23 16.9 µM | M14 9.75 µM | KM12 12.7 µM | EKVX 18.8 µM | SF-539 20 µM | SW-620 18.1 µM | OVCAR-5 14.7 µM | PC-3 16.1 µM | SNB-75 17 µM | UACC-257 16.6 µM | BT-549 15.7 µM | 786-0 13.9 µM | MDA-MB-435 5.11 µM | MCF7 11 µM | ACHN 11.1 µM

NNC(=O)CCSc1ccccc1
inactive: T47D > 100 µM | UACC-62 > 100 µM | SNB-19 > 100 µM | MOLT-4 > 100 µM | RXF 393 > 100 µM | NCI-H23 > 100 µM | M14 > 100 µM | KM12 > 100 µM | EKVX > 100 µM | SF-539 > 100 µM | SW-620 > 100 µM | OVCAR-5 > 100 µM | PC-3 > 100 µM | SNB-75 > 100 µM | UACC-257 > 100 µM | BT-549 > 100 µM | 786-0 > 100 µM | MDA-MB-435 > 100 µM | MCF7 > 100 µM | ACHN > 100 µM

O=C1C(Cl)=C(Oc2ccc([N+](=O)[O-])cc2)C(=O)c2c(O)ccc(O)c21
inactive: T47D 29.9 µM | UACC-62 > 63.7 µM | SNB-19 > 100 µM | MOLT-4 5.85 µM | RXF 393 23.1 µM | NCI-H23 > 57.9 µM | M14 > 47.8 µM | KM12 > 100 µM | EKVX > 100 µM | SF-539 > 100 µM | SW-620 30.2 µM | OVCAR-5 > 100 µM | PC-3 > 100 µM | SNB-75 > 100 µM | UACC-257 > 100 µM | BT-549 49.3 µM | 786-0 67.9 µM | MDA-MB-435 > 47.5 µM | MCF7 46.1 µM | ACHN 54.2 µM

NS(=O)(=O)c1ccc(NC(=O)Nc2ccccc2F)cc1
inactive: T47D 52.5 µM | UACC-62 72.3 µM | SNB-19 > 100 µM | MOLT-4 > 100 µM | RXF 393 > 100 µM | NCI-H23 > 100 µM | M14 82.4 µM | KM12 > 100 µM | EKVX > 100 µM | SF-539 > 100 µM | SW-620 > 100 µM | OVCAR-5 > 100 µM | PC-3 > 100 µM | SNB-75 > 100 µM | UACC-257 > 100 µM | BT-549 > 100 µM | 786-0 > 100 µM | MDA-MB-435 > 100 µM | MCF7 > 100 µM | ACHN > 100 µM
